What was measured:
[1] = test system: COX enzymes (D122 mouse Lewis lung carcinoma cells); assay: COX inhibition, PGE2 production in D122 cells; type: cell-based; details: average of two experiments in triplicate
Source text: In addition, the aromatic rings of the diphenylamine moiety were substituted with different electron donating or withdrawing groups. In a first screen, two parameters were checked: (a) the non-selective inhibition of COX-1/COX-2 enzyme activities, measured by the production of PGE2 in cultured mouse colon adenocarcinoma (CT26) and mouse Lewis lung carcinoma cells (D122) cells; (b) the M-channel activity, measured by the heterologous coexpression of Kv7.2 and Kv7.3 subunits in Chinese hamster ovary (CHO) cells.
Mouse colon adenocarcinoma CT26 and mouse Lewis lung carcinoma D122 cells were grown in DMEM (D122) or RPMI (CT26) supplemented with 10% fetal calf serum, 4% glutamine, 1% penicillin-streptomycin-nystatin and 3% non essential amino acids (D122) and maintained in a humidified 37°C incubator with 5% CO2. For the COX assays, cells were grown onto 24 multiwell plates. Before the assay, cells were washed with serum-free medium; then tested compounds were added to the medium and incubated for 30 min at 37°C after which 30 µM arachidonic acid was added and incubated for additional 20 min. At the end of the incubations, 10 µM indomethacin was added to stop the reaction and medium was transferred to another 24 multiwell plate for measuring PGE2 production by radioimmunoassay (DuPont-NEN; Boston, MA) according to manufacturer protocol. Protein determination was assayed on scraped cells and was used to normalize the amount of PGE2 production. Assays with purified ovine COX-1 and human recombinant COX-2 were performed using the COX inhibitor screening assay (Cayman chemical company, Ann Arbor, MI), according to manufacturer protocol.

rat DRG neurons = assay: Current-clamp recording of cultured DRG neurons; type: cell-based; details: 25 µM
Experimental: For dorsal root ganglion (DRG) neuronal cultures, ganglia were dissected from 2–5 day-old Sprague-Dawley rats killed by decapitation. DRGs were placed in Hank's balanced saline solution (HBSS) and prepared by enzymatic dissociation. Briefly, after 30 min incubation in 5 mg/ml dispase, 2 mg/ml collagenase type 1A and 0.1 mg/ml DNase (Invitrogen/Gibco, Carlsbad, CA) in Ca^2+ and Mg^2+-free HBSS, the ganglia were mechanically triturated with a fire-polished glass Pasteur pipette. The ganglia were then centrifuged for 5 min at 80xg and resuspended in DMEM supplemented with 2 mM L-glutamine, 16.5 mM NaHCO3, 6 g/l glucose, 5 ml penicillin/streptomycin and 10% fetal calf serum. For electrophysiological recording, dissociated neurons were plated on 13 mm glass coverslips, previously coated with poly-D-lysine (1 mg/ml) and laminin (10 µg/ml) and used at 1–2 days in culture.
For current-clamp recordings in primary cultured neurons, the patch pipettes were filled with (in mM): 135 KCl, 1 K2ATP, 1 MgATP, 2 EGTA, 1.1 CaCl2, 5 glucose, 10 HEPES, adjusted with KOH at pH 7.4 (315 mOsm). The external solution contained (in mM): 150 NaCl, 2.5 KCl, 2 CaCl2, 2 MgCl2, 15 glucose, 10 HEPES, adjusted with NaOH at pH 7.4 (325 mOsm). Recordings were sampled at 5 kHz and filtered at 2 KHz via a 4-pole Bessel low pass filter. A liquid junction potential of about −15.6 mV was measured between the intracellular and saline solutions and corrected on-line. For evoking spike discharges, 75–200 pA square depolarizing current pulses were injected into neurons for 400 ms. For rheobase current measurements, 100–1100 pA square depolarizing current pulses were injected into neurons for 2 ms.

[2] = test system: primary hippocampal neurons (glutamate and GABA release); assay: Spontaneous and miniature post-synaptic currents in cultured hippocampal neurons; type: cell-based, rat
Experimental: Because of their slow activation and their lack of inactivation, M-channels could modulate neuronal activity during repetitive spike discharge and tune neurotransmitter release. Figure 8 illustrates the effect of compound 15 on synaptic transmission and transmitter release. Spontaneous excitatory and inhibitory post-synaptic currents (sEPSCs and sIPSCs) were recorded from dense cultures of primary hippocampal neurons, using the voltage-clamp configuration of the whole-cell patch-clamp technique. […] Spontaneous EPSCs were recorded at −70 mV and were pharmacologically isolated by blocking GABAA receptor-mediated inhibitory post-synaptic currents (with 10 µM bicuculline and 30 µM picrotoxin). The sEPSCs were […] mediated by the activation of AMPA receptors and to a lesser extent of NMDA receptors, as they were blocked by 10 µM NBQX and 10 µM AP-5. Thus, sEPSCs reflect the synaptic release of glutamate. Under control conditions, sEPSCs appeared as repetitive bursts whose frequency was variable, ranging from 0.3 to 2 Hz and increasing with the density of the hippocampal culture. […] Consequently, compound 15 reduced by about 50% the total charge transfer as well as the charge transfer within the bursts (Figure 8D–F).
For hippocampal neuronal cultures, Sprague-Dawley rat embryos (E18) were removed by caesarian section and their hippocampi were dissected out. […]
Spontaneous excitatory postsynaptic currents (EPSCs) were recorded in the voltage-clamp configuration of the whole-cell patch-clamp technique at a holding potential of −70 mV as previously described; the extracellular solution contained (in mM) 160 NaCl, 2.5 KCl, 10 HEPES, 10 glucose, 2 CaCl2; pH 7.3 (325 mOsm), to which 30 µM picrotoxin and 10 µM bicuculline methyl iodide were added. […] Spontaneous inhibitory postsynaptic currents (IPSCs) were recorded at a holding potential of −70 mV; the extracellular solution contained (in mM) 160 NaCl, 2.5 KCl, 10 HEPES, 10 glucose, 2 CaCl2; pH 7.3 (325 mOsm), to which 10 µM NBQX and 10 µM AP-5 were added. […]

O=C(Cc1cc([N+](=O)[O-])ccc1Nc1c(Cl)cccc1Cl)OCCO [Compound 15] was tested, and the IC50 [1] was 0.229 µM, the “hyperpolarization of resting membrane potential, DRG neurons” value (rat DRG neurons) was −8.3±0.2 mV and the “resting membrane potential of DRG neurons after exposure” value (rat DRG neurons) was −69.0±0.3 mV. For the same compound, the “rheobase current to generate a single spike, DRG neurons” value (rat DRG neurons; 2 ms injection) was 577±38 pA, the “number of evoked action potentials, DRG neurons” value (rat DRG neurons; depolarizing current for 400 ms) was 0.8±0.3 and the “reduction of sEPSCs total charge transfer and charge transfer within bursts” value ([2]; 25 µM, holding −70 mV) was “about 50%”. The inhibition at 25 µM ([2]; Rattus norvegicus, Hippocampal neuron, 25 µM, holding −70 mV, read-out: inhibition of sIPSCs frequency of spontaneous occurrence) was greater than 98% and the “effect on amplitude and kinetics of miniature EPSCs and IPSCs” value ([2]; not shown) was “did not affect”.
